Assay results reported in patent US10435388B2, “Selective inhibitors of clinically important mutants of the EGFR tyrosine kinase” (CS PHARMATECH LIMITED, priority 2016, dated 2019).
Structures can show the parent of a compound that is named as a salt.

How the values were obtained:
Conditions in all cases: cellular proliferation, several runs
PC9 cells (SM) = experiment: PC-9 growth inhibition assay (cell proliferation), Method B; assay type: cell-based, human
Protocol: (§1) Cell Proliferation Assays—Method B
(§2) Test compounds were dissolved in DMSO at 30 mM.
(§3) The final concentration was 1,000 cells/well. Add medium only as low control. […] 5% CO2 incubator for 72 hours.
(§4) After 72 hours incubation, remove the plates from incubator and equilibrate at room temperature for 15 minutes. Incubate the CellTiter Glo reagents (Promega, G9243) at 37° C. before the experiment. The buffer was equilibrated to room temperature and used to dissolve the substrate. To determine the cell viability, add 40 μL of CellTiter-Glo reagent into each well to be detected (at 1:1 to culture medium). Then the place the plates at room temperature for 30 min followed by read on EnSpire (PerkinElmer).
(§5) For estimation of IC50, the luminescence readout are transformed to % Inhibition by applying the following equation: The IC50 was then
(§6) [formula] calculated by fitting in XLFit to a four parameters logistic curve.
PC-9 Growth Inhibition Assay (Cell Proliferation).
The inhibition assay of PC-9 cells was conducted in the same manner as described above for H1975 cells.

H1975 cells (DM) = experiment: H1975 inhibition assay (cell proliferation), Method B; assay type: cell-based
Protocol: as §1
H1975 Inhibition Assay (Cell Proliferation).
as §2, §3, §4, §5, §6

A431 cells (WT) = experiment: A431 inhibition assay (cell proliferation), Method B; assay type: cell-based, human
Protocol: as §1
A431 Inhibition Assay, (Cell Proliferation).
The rest procedure was conducted in the same manner as described above for H1975 cells.

Row | SMILES | IC50 (PC9 cells (SM); Homo sapiens, PC-9, 72 h) [µM] | IC50 (PC9 cells (SM); 72 h) [µM] | IC50 (H1975 cells (DM); Homo sapiens, NCI-H1975, 72 h) [µM] | IC50 (H1975 cells (DM); 72 h) [µM] | IC50 (A431 cells (WT); Homo sapiens, A-431, 72 h) [µM] | IC50 (A431 cells (WT); 72 h) [µM] | IC50 (PC9 cells (SM); 72 h, hydrochloride) [µM] | IC50 (H1975 cells (DM); 72 h, hydrochloride) [µM] | IC50 (A431 cells (WT); 72 h, hydrochloride) [µM]
1 | C=CC(=O)Nc1cc(Nc2nccc(-c3c[nH]c4c(=O)[nH]ccc34)n2)c(OC)cc1N(C)CCN(C)C [Example 22, N-(2-((2-(Dimethylamino)ethyl)(methyl)amino)-4-methoxy-5-((4-(7-oxo-6,7-dihydro-1H-pyrrolo[2,3-c]pyridin-3-yl)pyrimidin-2-yl)amino)phenyl) acrylamide] | 0.0626 | 0.0524 | 0.137 | 0.0927 | 1.69 | 1.19 |  |  | 
2 | C=CC(=O)Nc1cc(Nc2ncc(Cl)c(-c3cncc(C(N)=O)c3)n2)c(OC)cc1N(C)CCN(C)C [Example 24, 5-(2-((5-Acrylamido-4-((2-(dimethylamino)ethyl)(methyl)amino)-2-methoxyphenyl)amino)-5-chloropyrimidin-4-yl)nicotinamide hydrochloride] | 0.067 |  | 0.103 |  | 6.99 |  |  |  | 
3 | C=CC(=O)Nc1cc(Nc2ncc(Cl)c(-c3ccc(NC)nc3)n2)c(OC)cc1N(C)CCN(C)C [Example 25, N-(5-((5-Chloro-4-(6-(methylamino)pyridin-3-yl)pyrimidin-2-yl)amino)-2-((2-(dimethylamino)ethyl)(methyl)amino)-4-methoxyphenyl) acrylamide] | 0.0631 |  | 0.0198 |  | 2.1 |  |  |  | 
4 | C=CC(=O)Nc1cc(Nc2ncc(Cl)c(-c3ccc(N(C)C)nc3)n2)c(OC)cc1N(C)CCN(C)C [Example 26, N-(5-((5-Chloro-4-(6-(dimethylamino)pyridin-3-yl)pyrimidin-2-yl)amino)-2-((2-(dimethylamino)ethyl)(methyl)amino)-4-methoxyphenyl) acrylamide] | 0.0373 |  | 0.025 |  | 1.03 |  |  |  | 
5 | C=CC(=O)Nc1cc(Nc2nccc(-c3cnc(NC)c(C(N)=O)c3)n2)c(OC)cc1N(C)CCN(C)C [Example 28, 5-(2-((5-Acrylamido-4-((2-(dimethylamino)ethyl)(methyl)amino)-2-methoxyphenyl)amino)pyrimidin-4-yl)-2-(methylamino)nicotinamide] | 0.022 | 0.026 |  |  | 2.23 | 1.71 |  |  | 
6 | C=CC(=O)Nc1cc(Nc2nccc(-n3nc(C(N)=O)c4c3CCC4)n2)c(OC)cc1N(C)CCN(C)C [Example 29, 1-(2-((5-Acrylamido-4-((2-(dimethylamino)ethyl)(methyl)amino)-2-methoxyphenyl)amino)pyrimidin-4-yl) cyclopenta[c]pyrazole-3-carboxamide] | 0.0237 |  | 0.00524 |  | 0.777 |  |  |  | 
7 | C=CC(=O)Nc1cc(Nc2nccc(-c3cc(C(N)=O)c4c(c3)c(Cl)cn4C)n2)c(OC)cc1N(C)CCN(C)C [Example 32, 5-(2-((5-Acrylamido-4-((2-(dimethylamino)ethyl)(methyl)amino)-2-methoxyphenyl)amino)pyrimidin-4-yl)-3-chloro-1N-methyl-1H-indole-7-carboxamide hydrochloride] | 0.00852 |  | 0.00392 |  | 1.08 |  | 0.0119 | 0.0032 | 0.784
8 | C=CC(=O)Nc1cc(Nc2nccc(-c3c[nH]c(=O)c4c3ccn4C)n2)c(OC)cc1N(C)CCN(C)C [Example 33, N-(2-((2-(Dimethylamino)ethyl)(methyl)amino)-4-methoxy-5-((4-(1N-methyl-7-oxo-6,7-dihydro-1H-pyrrolo[2,3-c]pyridin-4-yl)pyrimidin-2-yl)amino)phenyl) acrylamide] | 0.0099 |  | 0.00633 |  | 0.0885 |  |  |  | 

Further lines, results first:

Row | IC50 (PC9 cells (SM); Homo sapiens, PC-9, 72 h) [µM] | IC50 (PC9 cells (SM); 72 h) [µM] | IC50 (H1975 cells (DM); Homo sapiens, NCI-H1975, 72 h) [µM] | IC50 (H1975 cells (DM); 72 h) [µM] | IC50 (A431 cells (WT); Homo sapiens, A-431, 72 h) [µM] | IC50 (A431 cells (WT); 72 h) [µM] | IC50 (PC9 cells (SM); 72 h, hydrochloride) [µM] | IC50 (H1975 cells (DM); 72 h, hydrochloride) [µM] | IC50 (A431 cells (WT); 72 h, hydrochloride) [µM] | SMILES
9 | 0.0333 |  | 0.0294 |  | 2.02 |  |  |  |  | C=CC(=O)Nc1cc(Nc2nccc(-n3nc(C(F)F)c4ccccc43)n2)c(OC)cc1N(C)CCN(C)C [Example 35, N-(5-((4-(3-(Difluoromethyl)-1H-indazol-1-yl)pyrimidin-2-yl)amino)-2-((2-(dimethylamino)ethyl)(methyl)amino)-4-methoxyphenyl) acrylamide hydrochloride]
10 | 0.022 |  | 0.0219 |  | 0.588 |  |  |  |  | C=CC(=O)Nc1cc(Nc2nccc(-c3cc(C)c[nH]c3=O)n2)c(OC)cc1N(C)CCN(C)C [Example 37, N-(2-((2-(Dimethylamino)ethyl)(methyl)amino)-4-methoxy-5-((4-(5-methyl-2-oxo-1,2-dihydropyridin-3-yl)pyrimidin-2-yl)amino)phenyl) acrylamide]
11 | 0.0827 |  | 0.082 |  | 1.32 |  |  |  |  | C=CC(=O)Nc1cc(Nc2ncc(Cl)c(-c3c[nH]c(=O)c(C)c3)n2)c(OC)cc1N(C)CCN(C)C [Example 38, N-(5-((5-Chloro-4-(3-methyl-2-oxo-1,6-dihydropyridin-5-yl)pyrimidin-2-yl)amino)-2-((2-(dimethylamino)ethyl)(methyl)amino)-4-methoxyphenyl) acrylamide]
12 | 0.00074 |  | 0.00052 |  | 0.0423 |  |  |  |  | C=CC(=O)Nc1cc(Nc2nccc(-c3c[nH]c4c(C(=O)NC)cccc34)n2)c(OC)cc1N(C)CCN(C)C [Example 39, N-Methyl 3-(2-((5-acrylamido-4-((2-(dimethylamino)ethyl)(methyl)amino)-2-methoxyphenyl)amino)pyrimidin-4-yl)-1H-indole-7-carboxamide]
13 | 0.063 |  | 0.0435 |  | 1.88 |  |  |  |  | C=CC(=O)Nc1cc(Nc2nccc(-c3cc(NC)cc4c3ccn4C)n2)c(OC)cc1N(C)CCN(C)C [Example 40, N-(5-(4-(1-Methyl-6-(methylamino)-1H-indol-4-yl)pyrimidin-2-ylamino)-2-(N-(2-(dimethylamino)ethyl)-N-methylamino)-4-methoxyphenyl) acrylamide]
14 | 0.475 |  | 0.174 |  | 9.07 |  |  |  |  | C=CC(=O)Nc1cc(Nc2nccc(-n3nc(NS(C)(=O)=O)c4ccccc43)n2)c(OC)cc1N(C)CCN(C)C [Example 44, N-(5-(4-(3-(N-methanesulfonylamido)-1H-indazol-1-yl)pyrimidin-2-ylamino)-2-(N-(2-(dimethylamino)ethyl)-N-methylamino)-4-methoxyphenyl) acrylamide]
15 | 0.0212 |  | 0.116 |  | 0.253 |  |  |  |  | C=CC(=O)Nc1cc(Nc2nccc(-c3c[nH]c4c(-c5cc[nH]n5)cccc34)n2)c(OC)cc1N(C)CCN(C)C [Example 46, N-(5-(4-(7-(1H-Pyrazol-3-yl)-1H-indol-3-yl)pyrimidin-2-ylamino)-2-(N-(2-(dimethylamino)ethyl)-N-methylamino)-4-methoxyphenyl) acrylamide]
16 | 0.0123 |  | 0.00879 |  | 0.404 |  |  |  |  | C=CC(=O)Nc1cc(Nc2ncc(Cl)c(-c3cc(C(N)=O)cc4c3ccn4C)n2)c(OC)cc1N(C)CCN(C)C [Example 47, 4-(2-(5-Acrylamido-4-((2-(dimethylamino)ethyl)(methyl)amino)-2-methoxyphenylamino)-5-chloropyrimidin-4-yl)-1-methyl-1H-indole-6-carboxamide]
17 | 0.00401 |  | 0.00348 |  | 0.265 |  |  |  |  | C=CC(=O)Nc1cc(Nc2nccc(-c3c[nH]c4c(C(C)(C)C)cccc34)n2)c(OC)cc1N(C)CCN(C)C [Example 48, N-(5-(4-(7-t-Butyl-1H-indol-3-yl)pyrimidin-2-ylamino)-2-(N-(2-(dimethylamino)ethyl)-N-methylamino)-4-methoxyphenyl) acrylamide]
